Data on 35 compounds can be found in US20050130232A1, “Methods of screening for compounds that modulate hormone receptor activity” (Allergan, Inc., priority 2001, published 2005).

Where no end group is shown, it is not given here. [ ]: non-standard residue; d: D form. hArg = N=C(N)NCCCC[C@H](N)C(=O)O

One data set deals with RAR receptors.
Assay: not given
The following applies: cited from earlier work.
Consider `CC1=C(/C=C/C(C)=C\C=C\C(C)=C\C(=O)O)C(C)(C)CCC1` [9-cis RA, 9-cis-retinoic acid], for which the “binding to RAR receptors” value was “binds to the RAR receptors”.

For the compound `CC1=C(/C=C/C(C)=C/C=C/C(C)=C/C(=O)O)C(C)(C)CCC1` [ATRA, All trans-retinoic acid], the “binding to RAR receptors” value is reported as “physiological hormone for the RAR receptors”.

For `Cc1cc2c(cc1C1(c3ccc(C(=O)O)cn3)CC1)C(C)(C)CCC2(C)C` [LG 100268], the “binding to RAR receptors” value was “not to any of the RAR isotypes”.

`CC(C)=C(c1ccc(C(=O)O)cc1)c1ccc2c(c1)C(C)(C)CCC2(C)C` [SR 11217]: the “binding to RAR receptors” value is recorded as “not to any of the RAR isotypes”.

As for `CC1(C)CCC(C)(C)c2cc(C3(c4ccc(C(=O)O)cc4)OCCO3)ccc21` [SR 11237], the “binding to RAR receptors” value is “not to any of the RAR isotypes”.

`C/C(=C\c1ccc(C(=O)O)cc1)c1ccc2c(c1)C(C)(C)CCC2(C)C` [TTNPB]: the “binding to RAR receptors” value is given as “binds RARs”.

Still in this data set, the particulars now being: in vitro binding assays; cited from earlier work.
`CC1(C)CCSc2ccc(C#Cc3ccc(C(=O)O)cn3)cc21` [AGN 190299]: the RAR isotype selectivity entry was “RARβ/γ selective”.

Take `CC1(C)CCC(C)(C)c2cc(NC(=O)c3ccc(C(=O)O)cc3)ccc21` [Am 80]: the RAR isotype selectivity result was “RARα-selective”.

Take `CC1(C)CCC(C)(C)c2cc(C(=O)Nc3ccc(C(=O)O)cc3)ccc21` [Am 580]: the RAR isotype selectivity entry was “RARα-selective”.

The subject of the next data set is protein kinase A.
Assay: not given
The note with it: selected protein kinase A synthetic substrates; cited from earlier work.
As to “A R T K R S G S V (ARTKRSGSV) [SEQ ID NO.: 98, protein kinase A synthetic substrate]”, the Km was 10 µM.

For “G R G L S L S R (GRGLSLSR) [SEQ ID NO.: 90, protein kinase A synthetic substrate]”, the Km is 240 µM.

Regarding “L H R A S L G (LHRASLG) [SEQ ID NO.: 101, protein kinase A synthetic substrate]”, the Km was 415 µM.

As to “L R K A S L G (LRKASLG) [SEQ ID NO.: 100, protein kinase A synthetic substrate]”, the Km is 260 µM.

On to “L R R A S L (LRRASL) [SEQ ID NO.: 96, protein kinase A synthetic substrate]”, for which the Km is 57 µM.

“L R R A S V A (LRRASVA) [SEQ ID NO.: 91, protein kinase A synthetic substrate]”: the Km is more than 10 µM.

Turning to “L X^aR A S L G (L[hArg]RASLG) [SEQ ID NO.: 102, protein kinase A synthetic substrate, X = homoarginine]”, the Km is 350 µM.

Take LRRASLG [SEQ ID NO.: 94, L R R A S L G]: the Km was 16 µM.

For “R R A S F (RRASF) [SEQ ID NO.: 111, protein kinase A synthetic substrate]”, the Km was 13 µM.

As for “R R A S I (RRASI) [SEQ ID NO.: 112, protein kinase A synthetic substrate]”, the Km was 7 µM.

Consider “R R A S L G (RRASLG) [SEQ ID NO.: 95, protein kinase A synthetic substrate]”, for which the Km is 26 µM.

Regarding “R R A S V (RRASV) [SEQ ID NO.: 93, protein kinase A synthetic substrate]”, the Km is 24 µM.

Turning to “R R A S V A (RRASVA) [SEQ ID NO.: 92, protein kinase A synthetic substrate]”, the Km is 20 µM.

As for “R T G R S G S V (RTGRSGSV) [SEQ ID NO.: 106, protein kinase A synthetic substrate]”, the Km was 140 µM.

On to “R T K R S G S V (RTKRSGSV) [SEQ ID NO.: 99, protein kinase A synthetic substrate]”, for which the Km was 21 µM.

With “V L Q A R R G S S I P Q (VLQARRGSSIPQ) [SEQ ID NO.: 104, protein kinase A synthetic substrate]”, the Km was 11 µM.

Regarding “V L Q A R R G T S I P Q (VLQARRGTSIPQ) [SEQ ID NO.: 109, protein kinase A synthetic substrate]”, the Km was 139 µM.

Consider “V L Q R R R G S S I P Q (VLQRRRGSSIPQ) [SEQ ID NO.: 97, protein kinase A synthetic substrate]”, for which the Km was 4 µM.

Take “V L Q R R R G T S I P Q (VLQRRRGTSIPQ) [SEQ ID NO.: 108, protein kinase A synthetic substrate]”: the Km was 39 µM.

For the compound “V L Q R R R P T S I P Q (VLQRRRPTSIPQ) [SEQ ID NO.: 110, protein kinase A synthetic substrate]”, the Km is 118 µM.

The target of another data set is Flag-tagged PH-RXRα (Flag tag, pleckstrin homology domain of human insulin receptor substrate-1, human RXRα) (UniProt P35568).
Assay: not given
Conditions: not given
For the compound “catalytic subunit of murine protein kinase A (expressed from pFC-PKA, Stratagene)”, the “protein kinase A activity in anti-Flag immunoprecipitates (substrate SEQ ID NO: 59), with against without AGN194204” value was “Immunoprecipitates prepared with anti-Flag antibody showed a dramatic increase in the amount of protein kinase A activity”.

Another data set deals with T1, RXR-associated protein kinase in Flag-RXR immunocomplexes (Homo sapiens, UniProt P19793).
T1 construct: expressed in transfected cells; host or cells: HEK 293
T1 sequence (P19793 1-462): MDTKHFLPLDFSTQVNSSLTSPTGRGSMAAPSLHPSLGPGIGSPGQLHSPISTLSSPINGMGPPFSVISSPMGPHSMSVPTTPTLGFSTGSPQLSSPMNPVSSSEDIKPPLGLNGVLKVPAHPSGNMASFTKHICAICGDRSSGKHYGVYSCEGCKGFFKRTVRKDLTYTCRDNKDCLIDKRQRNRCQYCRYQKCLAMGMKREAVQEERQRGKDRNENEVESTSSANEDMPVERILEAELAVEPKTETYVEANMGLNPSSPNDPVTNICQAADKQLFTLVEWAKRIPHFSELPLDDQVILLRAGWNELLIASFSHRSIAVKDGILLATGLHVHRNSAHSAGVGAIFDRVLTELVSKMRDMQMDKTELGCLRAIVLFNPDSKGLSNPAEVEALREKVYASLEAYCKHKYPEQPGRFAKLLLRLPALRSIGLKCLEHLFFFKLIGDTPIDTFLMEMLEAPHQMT
In words: In vitro kinase reaction with [γ-32P]ATP on Flag-RXR immunocomplexes from transfected HEK 293 cells. The data set is classed as cell-based. The following applies: transfected HEK 293 cells treated with ligand before anti-Flag immunoprecipitation. An excerpt:
Total cell lysates were immunoprecipitated with anti-Flag antibody (M2). Aliquots of the immunocomplexes were used for the in vitro kinase reaction with [γ-^32P]ATP and separated on SDS-PAGE. Phosphorylated proteins were detected by autoradiography (top panel). Additional aliquots of the immunocomplexes were subjected to immunoblotting with polyclonal anti-RXR antisera (D20; bottom panel). (B) Phosphoamino acid analysis. Flag-RXR and the 160-kDa protein were phosphorylated in vitro and separated on SDS-PAGE as described above, then transferred onto PVDF membrane, detected by autoradiography, and cut out for hydrolysis with acid (6 N HCl). The phosphorylated amino acids and standards (P-Ser, P-Thr, and P-Tyr) were separated by thin-layer chromatography. Positions of the standards P-Ser, P-Thr, and P-Tyr were visualized by ninhydrin staining and are indicated by arrows. (C) In vivo metabolic labeling of transfected HEK 293 cells. […] Cells were washed with phosphate-free medium and starved for 90 minutes before incubation with [^32P]orthophosphate for another 4 hours. […] Total cell lysates were immunoprecipitated with anti-Flag antibody (M2) and subjected to separation on SDS-PAGE. Phosphorylated proteins were detected by autoradiography.
Total cell lysates were subjected to immunoprecipitation, and the in vitro kinase reaction performed as described above.
Cell lysis, immunoprecipitation with anti-Flag (M2), in vitro kinase assay, and detection of the phosphorylated proteins in the RXRα immunoprecipitated complexes were performed as described above.
Cell culture and transient transfection was performed as follows. HEK 293 cells were grown in Dulbecco's modified Eagle's medium (DMEM) supplemented with 10% fetal bovine serum (FBS), 100U of penicillin per ml and 10 μg of streptomycion per ml at 37° C. in 5% CO2. For expression of RXR protein, 100-mm dishes of cells were transfected at 50% confluence with 2 μg of plasmid DNA using Lipofectamine (Life Technologies) as specified by the manufacturer. At 32 hours post-transfection, cells were starved by incubating in DMEM medium with 2.5% charcoal-treated fetal bovine serum or 0.1-0.5% calf bovine serum overnight, and then treated with indicated agents. Cells were harvested by aspirating medium, rinsing in phosphate buffered saline (PBS), and extracting into Lysis Buffer (30 mM Tris-HCL, pH 7.4, 0.5% Nonidet P-40, 10% glycerol, 150 mM NaCl, 1 mM EDTA, 40 mM NaF, 1 mM sodium orthovanadate, and 0.5 mM phenylmethylsufonyl fluoride, and 1× protease inhibitors, (Roche Diagnostics) or 1×SDS Sample Buffer.
Immunoprecipitation was performed essentially as follows. Cells were solubilized in cold Lysis Buffer and subsequently clarified by centrifugation at 20,000 g for 10 minutes at 4° C. Immunoprecipitations were performed at 4° C. by incubating clarified cell extracts with the indicated antibodies (2 μg/ml) and protein A/G-agarose beads (1:30 dilution of a 50% suspension) on a rotating wheel for 4 hours to overnight. Agarose beads were pelleted by low speed centrifugation and washed extensively with ice-cold Lysis Buffer.
Protein kinase assays were performed as follows. Immunoprecipitated complexes were resuspended in 15 μl of Kinase Assay Buffer (30 mM Tris-HCl, pH 7.4 and 10 mM MgCl2). Kinase reactions were initiated by addition of 2.5 μl of 50 μM [γ-^32P]ATP (10 μCi) to the immune-complexes, followed by incubation at 25° C. with occasional shaking for 20 minutes, and terminated by addition of 6 μl 4×SDS Sample Buffer. After heating at 100° C. for 5 minutes, the reaction mixtures were resolved by 4-12% SDS-PAGE. Incorporation of ^32P into RXR or other proteins was determined by autoradiography.
Regarding `CC1(C)CCC(C)(C)c2cc(C3(c4ccc(C(=O)O)cn4)CC3)ccc21` [AGN195029], the “phosphorylation of RXR and 160 kDa protein in Flag-RXR immunocomplexes” value (“phosphorylation” below) is “contained a kinase phosphorylated RXR and a 160 kDa protein”.

`CC1(C)CCC(C)(C)c2c1cc(C(=O)Nc1cc(F)c(C(=O)O)c(F)c1)c(O)c2Cl` [AGN195183]: the “phosphorylation” value is “not stimulated”.

In the case of `CC[C@]1(c2ccc3c(c2)C(C)(C)CCC3(C)C)C[C@H]1/C=C/C(C)=C/C(=O)O` [AGN195184], the “phosphorylation” value was “contained a kinase phosphorylated RXR and a 160 kDa protein”.

As to `CCC[C@]1(c2ccc3c(c2)C(C)(C)CCC3(C)C)C[C@H]1/C=C/C(C)=C/C(=O)O` [AGN195203], the “phosphorylation” value is “contained a kinase phosphorylated RXR and a 160 kDa protein”.

Consider `CCCCCCOc1c(\C(C)=C/C=C/C(C)=C/C(=O)O)cc(C(C)C)cc1C(C)C` [AGN195393], for which the “phosphorylation” value is recorded as “neither RXR nor the 160 kDa protein was phosphorylated”.

Consider `C/C(=C\c1ccc(C(=O)O)cc1)c1ccc2c(c1)C(C)(C)CCC2(C)C` [TTNPB], for which the “phosphorylation” value is recorded as “neither RXR nor the 160 kDa protein was phosphorylated”.

Another data set concerns RXR receptors.
Assay: not given
The note with it: cited from earlier work.
As for `CC1=C(/C=C/C(C)=C\C=C\C(C)=C\C(=O)O)C(C)(C)CCC1` [9-cis RA, 9-cis-retinoic acid], the “binding to RXR receptors” value is listed as “RXR receptor ligand”.

For `CC1=C(/C=C/C(C)=C/C=C/C(C)=C/C(=O)O)C(C)(C)CCC1` [ATRA, All trans-retinoic acid], the “binding to RXR receptors” value was “does not bind the RXR receptors”.

With `Cc1cc2c(cc1C1(c3ccc(C(=O)O)cn3)CC1)C(C)(C)CCC2(C)C` [LG 100268], the “binding to RXR receptors” value is given as “binding to all three RXRs”.

Consider `CC(C)=C(c1ccc(C(=O)O)cc1)c1ccc2c(c1)C(C)(C)CCC2(C)C` [SR 11217], for which the “binding to RXR receptors” value is reported as “binding to all three RXRs”.

Turning to `CC1(C)CCC(C)(C)c2cc(C3(c4ccc(C(=O)O)cc4)OCCO3)ccc21` [SR 11237], the “binding to RXR receptors” value is “binding to all three RXRs”.

Consider `C/C(=C\c1ccc(C(=O)O)cc1)c1ccc2c(c1)C(C)(C)CCC2(C)C` [TTNPB], for which the “binding to RXR receptors” value is “not RXRs”.
